Test results reported in the NIST ThermoML archive (doi:10.1016/j.jct.2003.11.008).

Tests used:
[1] = excess molar enthalpy (molar enthalpy of mixing); xn = mol fraction of the nth substance listed; conditions: 318.15 K, 101.3 kPa, Liquid
[2] = xn = mol fraction of the nth substance listed; conditions: 318.15 K, 101.3 kPa, Liquid

CCCCCCCCCCC [undecane] + CCCCOC(C)=O
Conditions | excess molar enthalpy [kJ/mol] | excess molar volume [m3/mol]
[1], x2 = 0.0677 | 0.335 | –
[1], x2 = 0.1493 | 0.63 | –
[1], x2 = 0.2299 | 0.88 | –
[1], x2 = 0.3113 | 1.07 | –
[1], x2 = 0.3836 | 1.18 | –
[1], x2 = 0.4482 | 1.24 | –
[1], x2 = 0.5078 | 1.26 | –
[1], x2 = 0.5555 | 1.23 | –
[1], x2 = 0.5708 | 1.22 | –
[1], x2 = 0.6136 | 1.17 | –
[1], x2 = 0.6586 | 1.11 | –
[1], x2 = 0.7055 | 1.04 | –
[1], x2 = 0.7534 | 0.941 | –
[1], x2 = 0.7837 | 0.864 | –
[1], x2 = 0.832 | 0.724 | –
[1], x2 = 0.8778 | 0.563 | –
[1], x2 = 0.9233 | 0.378 | –
[1], x2 = 0.9637 | 0.192 | –
[2], x2 = 0.0356 | – | 1.49e-07
[2], x2 = 0.0842 | – | 3.26e-07
[2], x2 = 0.1543 | – | 5.21e-07
[2], x2 = 0.2226 | – | 6.82e-07
[2], x2 = 0.288 | – | 7.97e-07
[2], x2 = 0.35 | – | 8.56e-07
[2], x2 = 0.407 | – | 9.28e-07
[2], x2 = 0.4636 | – | 9.43e-07
[2], x2 = 0.5172 | – | 9.66e-07
[2], x2 = 0.5676 | – | 9.44e-07
[2], x2 = 0.6153 | – | 9.27e-07
[2], x2 = 0.6613 | – | 8.79e-07
[2], x2 = 0.7042 | – | 8.17e-07
[2], x2 = 0.7392 | – | 7.75e-07
[2], x2 = 0.8289 | – | 5.74e-07
[2], x2 = 0.8978 | – | 3.84e-07
[2], x2 = 0.9408 | – | 2.33e-07

CCOC(C)=O [ethyl acetate] + CCCCCCC
Conditions | excess molar enthalpy [kJ/mol] | excess molar volume [m3/mol]
[1], x1 = 0.0803 | 0.471 | –
[1], x1 = 0.1683 | 0.838 | –
[1], x1 = 0.2488 | 1.13 | –
[1], x1 = 0.323 | 1.33 | –
[1], x1 = 0.395 | 1.45 | –
[1], x1 = 0.4614 | 1.5 | –
[1], x1 = 0.5037 | 1.51 | –
[1], x1 = 0.546 | 1.52 | –
[1], x1 = 0.5784 | 1.49 | –
[1], x1 = 0.5813 | 1.49 | –
[1], x1 = 0.6222 | 1.43 | –
[1], x1 = 0.6647 | 1.35 | –
[1], x1 = 0.7146 | 1.24 | –
[1], x1 = 0.7646 | 1.09 | –
[1], x1 = 0.8157 | 0.907 | –
[1], x1 = 0.8649 | 0.711 | –
[1], x1 = 0.9129 | 0.482 | –
[1], x1 = 0.9591 | 0.249 | –
[2], x1 = 0.0808 | – | 4.63e-07
[2], x1 = 0.143 | – | 7.33e-07
[2], x1 = 0.2084 | – | 9.35e-07
[2], x1 = 0.2751 | – | 1.105e-06
[2], x1 = 0.3329 | – | 1.204e-06
[2], x1 = 0.3968 | – | 1.263e-06
[2], x1 = 0.4462 | – | 1.303e-06
[2], x1 = 0.5057 | – | 1.309e-06
[2], x1 = 0.5536 | – | 1.289e-06
[2], x1 = 0.6019 | – | 1.236e-06
[2], x1 = 0.6506 | – | 1.163e-06
[2], x1 = 0.6848 | – | 1.107e-06
[2], x1 = 0.7249 | – | 1.019e-06
[2], x1 = 0.8166 | – | 7.67e-07
[2], x1 = 0.8964 | – | 4.43e-07
[2], x1 = 0.9478 | – | 2.47e-07

CCCOC(C)=O [propyl ethanoate] + CCCCCCC
Conditions | excess molar enthalpy [kJ/mol] | excess molar volume [m3/mol]
[1], x1 = 0.0692 | 0.345 | –
[1], x1 = 0.1449 | 0.633 | –
[1], x1 = 0.2229 | 0.884 | –
[1], x1 = 0.2968 | 1.05 | –
[1], x1 = 0.3635 | 1.16 | –
[1], x1 = 0.4256 | 1.22 | –
[1], x1 = 0.484 | 1.24 | –
[1], x1 = 0.535 | 1.22 | –
[1], x1 = 0.5539 | 1.19 | –
[1], x1 = 0.6002 | 1.13 | –
[1], x1 = 0.6528 | 1.05 | –
[1], x1 = 0.6987 | 0.956 | –
[1], x1 = 0.7526 | 0.828 | –
[1], x1 = 0.8089 | 0.659 | –
[1], x1 = 0.8635 | 0.493 | –
[1], x1 = 0.9048 | 0.354 | –
[1], x1 = 0.9537 | 0.185 | –
[2], x1 = 0.0727 | – | 3.32e-07
[2], x1 = 0.1288 | – | 4.98e-07
[2], x1 = 0.1829 | – | 6.45e-07
[2], x1 = 0.2463 | – | 7.68e-07
[2], x1 = 0.2995 | – | 8.38e-07
[2], x1 = 0.3536 | – | 8.87e-07
[2], x1 = 0.404 | – | 9.09e-07
[2], x1 = 0.463 | – | 9.23e-07
[2], x1 = 0.5069 | – | 9.1e-07
[2], x1 = 0.5618 | – | 8.85e-07
[2], x1 = 0.6574 | – | 7.96e-07
[2], x1 = 0.6914 | – | 7.52e-07
[2], x1 = 0.7928 | – | 5.61e-07
[2], x1 = 0.8765 | – | 3.62e-07
[2], x1 = 0.9436 | – | 1.75e-07

CCCCCOC(C)=O [pentyl ethanoate] + CCCCCCCCCCC
Conditions | excess molar enthalpy [kJ/mol] | excess molar volume [m3/mol]
[1], x1 = 0.083 | 0.359 | –
[1], x1 = 0.1513 | 0.578 | –
[1], x1 = 0.225 | 0.774 | –
[1], x1 = 0.2965 | 0.926 | –
[1], x1 = 0.3642 | 1.03 | –
[1], x1 = 0.4271 | 1.08 | –
[1], x1 = 0.4836 | 1.1 | –
[1], x1 = 0.5356 | 1.1 | –
[1], x1 = 0.5749 | 1.06 | –
[1], x1 = 0.6055 | 1.03 | –
[1], x1 = 0.6529 | 0.962 | –
[1], x1 = 0.7058 | 0.876 | –
[1], x1 = 0.7614 | 0.762 | –
[1], x1 = 0.8186 | 0.627 | –
[1], x1 = 0.8782 | 0.452 | –
[1], x1 = 0.9384 | 0.258 | –
[2], x1 = 0.0737 | – | 2.57e-07
[2], x1 = 0.1355 | – | 4.05e-07
[2], x1 = 0.2015 | – | 5.38e-07
[2], x1 = 0.2641 | – | 6.43e-07
[2], x1 = 0.3197 | – | 7.07e-07
[2], x1 = 0.3776 | – | 7.48e-07
[2], x1 = 0.4395 | – | 7.8e-07
[2], x1 = 0.4861 | – | 7.92e-07
[2], x1 = 0.5386 | – | 7.87e-07
[2], x1 = 0.5852 | – | 7.75e-07
[2], x1 = 0.6345 | – | 7.38e-07
[2], x1 = 0.6828 | – | 6.92e-07
[2], x1 = 0.713 | – | 6.43e-07
[2], x1 = 0.8089 | – | 4.89e-07
[2], x1 = 0.8864 | – | 3.26e-07
[2], x1 = 0.9483 | – | 1.64e-07

COC(C)=O [methyl ethanoate] + CCCCCCC
Conditions | excess molar enthalpy [kJ/mol] | excess molar volume [m3/mol]
[1], x1 = 0.0778 | 0.571 | –
[1], x1 = 0.1534 | 1.02 | –
[1], x1 = 0.2251 | 1.39 | –
[1], x1 = 0.2785 | 1.58 | –
[1], x1 = 0.3445 | 1.78 | –
[1], x1 = 0.4038 | 1.89 | –
[1], x1 = 0.4555 | 1.93 | –
[1], x1 = 0.5034 | 1.95 | –
[1], x1 = 0.5451 | 1.93 | –
[1], x1 = 0.5759 | 1.91 | –
[1], x1 = 0.6498 | 1.79 | –
[1], x1 = 0.6832 | 1.74 | –
[1], x1 = 0.7322 | 1.63 | –
[1], x1 = 0.7698 | 1.49 | –
[1], x1 = 0.8184 | 1.31 | –
[1], x1 = 0.873 | 1.05 | –
[1], x1 = 0.9036 | 0.79 | –
[1], x1 = 0.9534 | 0.45 | –
[2], x1 = 0.096 | – | 6.73e-07
[2], x1 = 0.1583 | – | 9.83e-07
[2], x1 = 0.2293 | – | 1.293e-06
[2], x1 = 0.2947 | – | 1.495e-06
[2], x1 = 0.3534 | – | 1.597e-06
[2], x1 = 0.408 | – | 1.665e-06
[2], x1 = 0.4619 | – | 1.705e-06
[2], x1 = 0.5159 | – | 1.699e-06
[2], x1 = 0.5572 | – | 1.659e-06
[2], x1 = 0.6064 | – | 1.605e-06
[2], x1 = 0.6501 | – | 1.535e-06
[2], x1 = 0.6915 | – | 1.451e-06
[2], x1 = 0.7275 | – | 1.345e-06
[2], x1 = 0.7645 | – | 1.228e-06
[2], x1 = 0.8471 | – | 8.83e-07
[2], x1 = 0.9111 | – | 5.53e-07
[2], x1 = 0.9577 | – | 2.83e-07
